A word on the solubility: it is how much of the substance goes into solution per volume. Higher therefore signals a readily soluble substance.

One molecule from US7071210B2, “CETP inhibitors in combination with antihypertensive agents and uses thereof” (Pfizer Inc., priority 2002, dated 2006) can be followed below.

Molecules are shown by their SMILES.

This data set can be described thus: Aqueous solubility. Format: physicochemical. The following applies: aqueous environments.

For the molecule `CCOC(=O)N1c2ccc(C(F)(F)F)cc2[C@@H](N(Cc2cc(C(F)(F)F)cc(C(F)(F)F)c2)C(=O)OC)C[C@H]1CC` [torceptrapib, [2R,4S]-4-[(3,5-bis-trifluoromethyl-benzyl)-methoxycarbonyl-amino]-2-ethyl-6-trifluoromethyl-3,4-dihydro-2H-quinoline-1-carboxylic acid ethyl ester], the solubility was below 0.04 µg/mL.
